{"source": "patent US11064704B2", "about": "“Natural product formulations with improved residual insect repellent/deterrent activity” (University of Mississippi, priority 2016, dated 2021)", "test_system": "mosquitoes", "assay": "in vivo direct skin application bioassay", "details": "12.5% application rate", "procedure": "Direct skin application bioassays were conducted by using a powder-free latex glove (Diamond Grip, Microflex Corporation, Reno, Nev.). An opening of 3×4 cm was cut through the glove to fit on dorsal surface of the hand (FIG. 1). After wearing the glove, a wristband was used to avoid the biting on the hand near the border of the glove. Approximately, 500 (±5%), consisting primarily of females were transferred to a test cage (45×45×45 cm) using an aspirator. A series of dosages were tested to determine MED for repellency as well as residual activity against mosquitoes. A single test consisted of covering the hand of a volunteer with a powder-free latex glove and treating 12 cm^2 surface area, cut through the glove, on dorsal surface of the hand. Marked skin surface area was treated with the test compound in 50 μl of total volume. Because of constrain of man power, only one volunteer who was provided with a written informed consent participated in this study. A protocol approved by the University of Mississippi Human Use Institutional Review Board (IRB protocol #15-070) was followed.\nThe test started when the hand treated (3×4 cm area cut through the glove on the dorsal surface) with a test compound was inserted into the mosquito cage. […] Any treatment with […] females biting during 1 min test period was considered as “passed” whereas a treatment with ≥5 bites out of 500 mosquitoes was considered as “failed”. In case of passing the next lower and in case of failure next higher serial dose was tested to reach MED. Additionally, data on the residual repellent activity was recorded by exposing the treatments to the females after every 30 minutes until the treatment failed. Carrot essential oil, carotol and DEET and the mixtures were tested.\nDirect skin application bioassays were conducted by using a powder-free latex glove (Diamond Grip™, Microflex Corporation, Reno, Nev.). An opening of 3×4 cm was cut through the glove to fit on the dorsal surface of the hand. After donning the glove, a wristband was used to avoid biting on the hand near the border of the glove. Approximately 500 (±5%) mosquitoes, consisting primarily of females, were transferred to a test cage (45×45×45 cm) using an aspirator. A series of dosages were tested to determine MED for repellency as well as residual activity against mosquitoes.\nA single test consisted of covering the hand of a volunteer with a powder-free latex glove and treating a 12 cm^2 surface area, cut through the glove, on the dorsal surface of the hand. Marked skin surface area was treated with the test compound in 50 μl of total volume. Because of constraints of man power, only one volunteer who was provided with a written informed consent participated in this study. A protocol approved by the University of Mississippi Human Use Institutional Review Board (IRB Protocol #15-070) was followed.\nThe test started when the hand treated (3×4 cm area cut through the glove on the dorsal surface) with a test compound was inserted into the mosquito cage. […] Any treatment with ≤5 females biting during the 1 min test period was considered as “passed”, whereas a treatment with ≥5 bites out of 500 mosquitoes was considered as “failed”. In case of passing, the next lower, and in case of failure, the next higher, serial dose was tested to reach MED. Additionally, data on the residual repellent activity were recorded by exposing the treatments to the females after every 30 minutes until the treatment failed. Carrot seed essential oil, carotol, geranium and lemon Eucalyptus essential oils, DEET, picaridin and the mixtures were tested.", "data": [{"smiles": "CCCCCCCCCCC(=O)O", "note": "[Undecanoic acid, undecanoic acid, reference compound]", "values": [{"measurement": "residual activity: time post application at which MED reached/crossed", "value": 1.5, "unit": "h"}]}]}
